{"source": "patent US12303556B2", "about": "“Peptides for treatment and prevention of diabetes and associated disorders” (UNIVERSITE DE STRASBOURG, priority 2018, dated 2025)", "key": {"[1]": {"test_system": "primary human mature adipocytes", "test": "Glucose uptake assay in human mature adipocytes (2-DG, Abcam kit)", "type": "cell-based", "conditions": "30 minutes with 2-DG, without insulin, 2.5 μL of peptide at 10 μg/μL in 200 μL; N=8; compared with insulin", "method": "FIG. 4: Glucose uptake in human primary mature adipocyte. N=8 per group.\nHuman primary preadipocyte were cultured in a 96-well plate and differentiated in mature human adipocytes. After 3 weeks of culture post adipogenesis, the adipocytes were incubated in culture medium without insulin for 2 hours. Following these 2 hours of insulin fasting, the media were changed back wither either medium without insulin (−INS) or medium with insulin (+INS) or medium with ADPIF (PATAS) for 30 minutes together with 2-DG, a glucose analogue used to determine glucose uptake in the Abcam kit. Following the manufacturer's protocol, we then measured the glucose uptake in 8 wells per condition and calculated the mean that was then plotted in the histogram with the standard error of the mean for the error bars shown in […] FIG. 4.\nHuman white visceral preadipocytes (Catalog #: C-12732; PromoCell) were purchased. The preadipocytes were seeded according to manufacturer's protocol and cultured in the Preadipocyte growth medium (Catalog #: C-27410; PromoCell) to confluence. Adipogenic differentiation was induced by changing the medium to the Preadipocyte Differentiation Medium (Catalog #: C-27436; PromoCell) for 2 days. After the differentiation phase, the medium was finally changed to the Adipocyte Nutrition medium (Catalog #: C-27438; PromoCell). […]"}, "Bbs10-/- mice": {"test_system": "Bbs10-/- mice", "test": "ipGTT in Bbs10-/- mice (Bardet Biedl syndrome model)", "type": "in vivo", "conditions": "2 mg/kg body weight subcutaneous, 3 days post-injection", "source_text": "FIGS. 7A-7B. PATAS is effective in improving glucose intolerance in a genetic mouse model for a rare disease associated with obesity and type 2 diabetes, the Bardet Biedl syndrome (BBS). BBS mice were on chow diet fed ad libitum. n=4 mice with a cross-over experimental set-up with ipGTT performed before injection and 3 days post-injection. Knockout mouse model for the BBS10 gene (Bbs10^−/−) were generated and spontaneously became obese as described in literature.\nKnockout mouse model for the BBS10 gene (Bbs10^−/−) were generated and spontaneously became obese as described in literature.\nFor the obese mouse model with overt type 2 diabetes mouse, the BKS (D)-Leprdb/J, Stock No: 010803 (were purchased from the Jax Labs. Bbs10 knockout mice were generated by Institute Mouse Clinic (ICS) in Strasbourg and have been previously described in literature. All mice were on a C57/BL6 genetic background. All animals were housed in a temperature and humidity-controlled facility, with a 12 h-light/12 h-dark cycle. The BKS (D)-Leprdb/J mice were fed with chow diet (LM-485; Harlan Teklad Premier Laboratory Diets) whereas the Bbs knockout mice were fed with […] and tap water ad libitum. For ipGTT and ipITT, mice were fasted for 6 hours before start of experiment. Insulin 0.75 U/kg was injected i.v. via the tail vein. Blood glucose and samples were collected from the tail. […]"}, "FATP2": {"test_system": "FATP2", "test": "FATP isoform expression in subcutaneous white adipose tissue of db/db mice", "type": "in vivo", "conditions": "4 weekly PATAS injections then 4 weeks without treatment, n=6, GAPDH reference, vs control mice", "method": "(FIG. 6B) Following 4 weekly PATAS injections, and another 4 weeks without treatment, db/db mice sWAT. Normalized expression levels for the six FATP isoforms (FATP 1-6) in subcutaneous white adipose tissue (sWAT) were determined. n=6 per group with GAPDH as reference gene.\nPATAS/ADPIF's activity was tested in db/db on the BKS genetic background, diabetic mouse models. […] The mice received a weekly injection of PATAS/ADPIF or vehicle for another 3 weeks followed by another 4 weeks without any treatment while being constantly monitored.\nTotal RNA was prepared from the different tissues and cells using a RiboPure™ kit (Catalog #: AM1924; Ambion) followed by a DNAse treatment with the TURBO DNA-free™ (Catalog #: AM 1907; Ambion). RNA integrity was assessed by gel electrophoresis and RNA concentration by Eppendorf Biophotometer Plus with the Hellma® Tray Cell (Catalog #: 105.810-uvs; Hellma). Reverse transcription of 1 μg total RNA to cDNA was performed using the BioRadiScript™ cDNA synthesis kit (Catalog #: 170-8891; BioRad). Real-time quantitative polymerase chain reaction amplification was performed in a BioRad CFX96 TM Real-Time System using the iQ™ SYBR® Green Supermix (Catalog #: 170-8886; BioRAd) and primer sets optimized for tested targets for SYBR Green-based real-time PCR for the real-time PCR. […]"}, "PKC": {"test_system": "PKC", "test": "PKC kinase activity in human adipocytes", "type": "cell-based", "conditions": "for PKC kinase activity at 25 μg peptide per well: 25 μg per well, 30 minutes, positive control insulin", "method": "FIG. 1. PKC kinase activity in human adipocytes induced by peptides from alpha PKC. Primary human adipocytes were cultured overnight without insulin and on the next day, the different conditions were used with for each peptide 25 μg of peptide ECTMVEKKVLALL (SEQ ID NO: 50) or 25 ug of peptide SVEWWAYGLLYEMLA (SEQ ID NO: 51) was added to each well and incubated for 30 minutes prior to measuring the PKC activity. Vehicle which is saline solution was the negative control and the positive control used was insulin at […].\nFIG. 3. PATAS in vitro dose response to trigger PKC activity in the human adipocytes. PATAS in vitro dose response to trigger PKC activity in the human adipocytes after a 30 minutes incubation of human primary adipocyte with PATAS added to the culture medium. n=5 per group and PATAS quantities are expressed as μg per well.\nTwo other peptides from PKC alpha, namely ECTMVEKKVLALL (SEQ ID NO: 50) and SVEWWAYGLLYEMLA (SEQ ID NO: 51) have also been tested for their effect on PKC kinase activity.\nFor PKC kinase activity tests, we used ready to use mature primary human adipocytes originating from omental adipose tissue were purchased from Zenbio in either a 96-well or a 6-well plate format (Catalog #: OA-1096-3 or OA-1006-3). The PKC kinase activity Assay kit (Catalog #: 139437) and procedures were used according to manufacturer's protocol."}, "db/db male mice": {"test_system": "db/db male mice", "test": "ipGTT in db/db (BKS) diabetic mice", "type": "in vivo", "conditions": "2 mg/kg BW subcutaneous, ipGTT day 4 post-injection, 6-week-old db/db mice on chow diet", "method": "(FIG. 6A) Blood glucose excursion curve during ipGTT on day 4 post-PATAS subcutaneous injection (2 mg/kg BW PATAS dosing) in 6-week-old db/db male mice on chow diet Post 8 hours fasting. Glucose bolus (2 g/kg body weight) administered […] at T=Omin and the associated AUC histogram (n=10 mice per group Significance was set at *p-value≤0.05, **p-value≤0.01).\nPATAS/ADPIF's activity was tested in db/db on the BKS genetic background, diabetic mouse models. […] The mice received a weekly injection of PATAS/ADPIF or vehicle for another 3 weeks followed by another 4 weeks without any treatment while being constantly monitored. […]\nAt day 0: all mice were fasted for 4 hours in the morning. […] Blood glucose levels were measured from tail vein blood at every 30 minutes intervals and plotted to determine the effect of the different treatments on the area under the curve."}, "[2]": {"test_system": "DIO glucose intolerant male mice", "test": "Glucose tolerance test (ipGTT) in DIO glucose intolerant male mice", "type": "in vivo", "conditions": "single dose 25 micrograms per mouse, ipGTT at day 6, high fat/high glucose diet", "method": "(FIG. 5A) Glucose tolerance: Mice were injected with either vehicle (saline solution), or vehicle+PATAD 417 or vehicle+ADPIF (CPC peptide A-MRO) at day 0. 6 days later (D6) the mice were fasted for 4 hours and at 0 minute received a […] glucose injection to perform the ipGTT. Glucose levels were measured from tail blood every 30 minutes. Besides the control mice which were fed on chow diet (CTL Chow diet), all the other mice were fed on a high fat/high glucose diet.\nMice were injected with a single dose (25 micrograms per mouse) of either scramble peptide or PATAD or ADPIF/PATAS. These are results obtained from series of glucose tolerance test (ipGTT) in DIO glucose intolerant male mice (FIGS. 5A and B).\nAt day 0: all mice were fasted for 4 hours in the morning. At 1:00 p.m., control mice received one injection of (body weight in grams)×10 […] of 22% glucose solution ([…] injection). Treated mice were injected with either 25 ug (2.5 uL of mother solution) of tested peptide dissolved in (body weight in grams)×10 of the 22% glucose solution. Blood glucose levels were measured from tail vein blood at every 30 minutes intervals and plotted to determine the effect of the different treatments on the area under the curve."}, "glycated albumin": {"test_system": "glycated albumin", "test": "Glycated albumin in plasma in the STAM mice model (ELISA)", "type": "in vivo", "conditions": "5 weekly subcutaneous injections of 25 ug per mouse, 6 mice per group, vs vehicle", "source_text": "FIG. 8. Effect of ADPIF on glycated albumin in plasma in the STAM mice model. Plasma of the treated mice from the Japanese STAMT model were used to measure circulating glycated albumin levels using a commercially available kit. The results are presented in this figure as the mean value of 6 mice per group presented with the standard error of the mean for the error bars.\nGlycated albumin is a well-recognized and robust parameter to determine episodes of hyperglycemia in vivo. We therefore used the plasma from the STAMT mice that were treated for 5 weeks with weekly ADPIF/PATAS's injections at 25 ug each compared to control groups which were injected with saline.\nFor the non-obese STAM mouse model study, C57BL/6 mice (14-day-pregnant female) were obtained from Japan SLC, Inc. (Japan). All animals used in the study were housed and cared for in accordance with the Japanese Pharmacological Society Guidelines for Animal Use. The animals were maintained in a SPF facility under controlled conditions of temperature (23±2° C.), humidity (45±10%), lighting (12-hour artificial light and dark cycles; light from 8:00 to 20:00) and air exchange. The animals were housed in TPX cages (CLEA Japan) with a maximum of 3 mice per cage. Sterilized Paper-Clean (Japan SLC) was used for bedding and replaced once a week. […]"}}, "note": "No end group written: not given here."}
{"substance": "VECTTREKEVLASLDKAAFLTQLHS (staple (positions not given here); not fully specified (bridges); also: hydrocarbon staple via alkenyl Arg and Ser, positions not given here) [ADPIF/PATAS, Stapled peptide wherein R and S carry the stapling, being preferably 2-(7-octenyl)arginine and 2-(4-pentenyl)serine]", "values": [{"measurement": "glucose uptake (glucose absorption)", "setting": "[1]", "value": "as effective as Insulin"}, {"measurement": "glucose tolerance (ipGTT)", "setting": "Bbs10-/- mice", "value": "improved glucose tolerance"}, {"measurement": "ipGTT area under the curve (AUC)", "setting": "Bbs10-/- mice; before injection ~30000, n=4", "value": "~16000", "unit": "mg·min/dL"}, {"measurement": "Fatp2 expression levels in adipose tissue (sWAT)", "setting": "FATP2", "value": "able to decrease the expression of FATP2"}, {"measurement": "Fatp2 expression levels in adipose tissue (sWAT)", "setting": "FATP2; listed as PATAS", "value": "specific and significant drop in Fatp2 expression levels"}, {"measurement": "PKC activity, dose response", "setting": "PKC; 30 minutes incubation, PATAS quantities in μg per well, n=5", "value": "increasing PKC activity with increasing ADPIF/PATAS quantity"}, {"measurement": "glucose intolerance / hyperglycemia (ipGTT)", "setting": "db/db male mice", "value": "able to prevent hyperglycemia"}, {"measurement": "glucose intolerance / hyperglycemia (ipGTT)", "setting": "db/db male mice; listed as PATAS/ADPIF", "value": "significant improvement of the glucose intolerance"}, {"measurement": "area under the curve (AUC) of glucose tolerance test", "setting": "[2]", "value": "more effective than PATAD to reduce the AUC"}, {"measurement": "glucose intolerance (ipGTT)", "setting": "[2]", "value": "more active than PATAD peptide"}, {"measurement": "glycated albumin levels in plasma", "setting": "glycated albumin", "value": "significant drop in glycated albumin"}, {"measurement": "glycated albumin levels in plasma", "setting": "glycated albumin; listed as ADPIF", "value": "significant drop in glycated albumin levels"}]}
{"substance": "ECTMVEKKVLALL (hydrocarbon staple; segment of kinase domain of alphaPKC) [Peptide from PKC alpha with M and A carrying the stapling]", "values": [{"measurement": "PKC kinase activity at 25 μg peptide per well", "setting": "PKC", "value": "able to increase PKC kinase activity"}]}
{"substance": "VE CTM-[2-(4-pentenyl) alanine]-EK RVL A-[2-(4-pentenyl) alanine]-L DKP PFL TQL HS [PATAD, reference compound]", "values": [{"measurement": "area under the curve (AUC) of glucose tolerance test", "setting": "[2]", "value": "drop in the AUC"}]}
{"substance": "SVEWWAYGLLYEMLA (staple (positions not given here); not fully specified; also: hydrocarbon staple, positions not given here) [Peptide from PKC alpha with A and M carrying the stapling]", "values": [{"measurement": "PKC kinase activity at 25 μg peptide per well", "setting": "PKC", "value": "able to increase PKC kinase activity"}]}
